One series concerns LOX. The settings on record: peptidyl lysine oxidation by LOX; cited from earlier work. An excerpt:
An alternative approach for specific targeting of LOX involves the use of oligopeptides. Nagan and Kagan have investigated collagen-like structures to explore peptide sequences derived from the lysine-containing N- and C-terminal telopeptides of collagen concerning their enzymatic conversion by LOX. […] It was concluded that the aspartic acid located two positions ...

Series [1] has as its system breast cancer tumor models. It counts as in vivo, mice. The settings on record: for tumor-to-blood ratio / tumor-to-muscle ratio: tumor model not stated. How it is done:
(§1) PET experiments were performed with [^18F]FB-GGGDPKGGGGG-NH2 injected into EMT-6 tumor-bearing BALB/c mice or into NIH-III mice bearing subcutaneous MCF-7 or MDA-MB-231 tumors, and tracer uptake was analyzed in vivo. For radiotracer injection, a catheter was placed into the tail vein of the mouse. While under anesthesia, mice were placed in the prone position with the medial axis parallel to the axial axis of the scanner and the thorax, abdomen and hind legs placed into the center of the field of view of the microPET R4 or Inveon PET/computed tomography (CT) scanner (Siemens Preclinical Solutions, Knoxville, TN, USA). A transmission scan for attenuation correction was not acquired. [^18F]FB-GGGDPKGGGGG-NH2 (4–5 MBq) in 100–150 μl of saline was injected intravenously through the catheter into the tail vein. The effects of BAPN were analyzed after intraperitoneal injection of 2 mg (100 mg/kg) of the inhibitor 4 h and 24 h before radiotracer injection. For the different experimental protocols, either an emission scan 60 min postinjection (dynamic experiments) was performed immediately or a 20 min postinjection PET scan acquisition (static scan followed by CT scan) was performed. Depending on the experimental setup, data acquisition continued for either 60 min or 20 min in three-dimensional list mode. The dynamic list mode data were sorted into sinograms with 53 time frames (10×2 s, 8×5 s, 6×10 s, 6×20 s, 8×60 s, 10×120 s and 5×300 s). The frames were reconstructed using ordered subset expectation maximization or maximum a posteriori reconstruction modes.
(§2) The pixel size was 0.085×0.085×0.12 cm, and the resolution in the center field of view was 1.8 mm. Correction for partial volume effects was not performed. The image files were further processed using the ROVER v2.0.51 software (ABX, Radeberg, Germany). Masks defining three-dimensional regions of interest (ROIs) were set, and the ROIs were defined by 50 % thresholding. Mean standardized uptake values (SUVmean = [activity/ml tissue]/[injected activity/body weight], mL/kg] were calculated for each ROI. Time–activity curves (TACs) were generated for the dynamic scans only. All semiquantified PET data are presented as mean ± SEM.

A short description of series [2]: Radio-HPLC of plasma samples and quality control (retention time). The note with it: Luna C18(2) 250×4.6 mm, water/0.2 % TFA - acetonitrile gradient, 1 ml/min; two more lipophilic radiometabolites eluted at 13.2 and 14.3 min. The series is classed as physicochemical. The procedure: (§3) Normal BALB/c mice received injections of approximately 25 MBq of [^18F]FB-GGGDPKGGGG. Venous blood samples were taken at 5, 15, 30 and 60 min postinjection and processed for determination of metabolic stability in vivo. Blood cells were separated by centrifugation (13,000 rpm for 5 min). Proteins in the supernatant were precipitated by addition of 2 volume parts of methanol followed by a second centrifugation step (13,000 rpm for 5 min). Radioactivity in blood components (cells, proteins and plasma) was measured using a Wallac Wizard 1480 3 automatic gamma counter. The clear plasma supernatant was examined using a Shimadzu HPLC system (Shimadzu Scientific Instruments, Columbia, MD, USA) equipped with a DGU-20A5 degasser, a SIL-20AHT autosampler, a LC-20AT pump, a SPD-M20A photo diode array detector and a RAMONA* radiodetector (Raytest Isotopenmessgeraete, Straubenhardt, Germany). The samples were analyzed using a Phenomenex Luna 10-μm C18(2) 100 Å, 250×4.6-mm column and the following gradients with water/0.2 % TFA as solvent A and acetonitrile as solvent B: 0–3 min 10 % B, 10 min 30 % B, 17 min 50 % B, 23 min 70 % B and 27–30 min 90 % B. The flow was constant at 1 ml/min, and the ultraviolet signals were measured at 210 nm and 254 nm.

The subject of the next series is MCF-7 tumors. It counts as in vivo, NIH-III nu/nu mice. How it is done: Human MCF-7 cells, which form xenografts in female athymic mice, were injected subcutaneously (2–5×10^6 cells in 100 μl of PBS) into 8–10-week-old female NIH-III nu/nu mice (Charles River, Wilmington, MA, USA). Before injection of the cells, all mice received a 0.72-mg pellet containing 17β-estradiol in a 60-day release preparation (Innovative Research of America, Sarasota, FL, USA).
(§4) The pellet was implanted subcutaneously into the upper right flank to provide a constant level of 17β-estradiol needed by the estrogen receptor (ER)-positive MCF-7 cells. Tumors were imaged 20–30 days after injection, with the tumors reaching sizes ranging from 200 to 400 mm^3. Human MDA-MB-231 cells (1×10^6 cells in 100 μl of PBS) were also injected subcutaneously into 8–10-week-old female NIH-III nu/nu mice. After 7–9 days, they reached a size of approximately 500 mm^3 and were suitable for the PET experiments.
PET experiments were performed with [^18F]FB-GGGDPKGGGGG-NH2 injected into EMT-6 tumor-bearing BALB/c mice or into NIH-III mice bearing subcutaneous MCF-7 or MDA-MB-231 tumors, and tracer uptake was analyzed in vivo. For radiotracer injection, a catheter was placed into the tail vein of the mouse. While under anesthesia, mice were placed in the prone position with the medial axis parallel to the axial axis of the scanner and the thorax, abdomen and hind legs placed into the center of the field of view of the microPET R4 or Inveon PET/computed tomography (CT) scanner (Siemens Preclinical Solutions, Knoxville, TN, USA). A transmission scan for attenuation correction was not acquired. […] The effects of BAPN were analyzed after intraperitoneal injection of 2 mg (100 mg/kg) of the inhibitor 4 h and 24 h before radiotracer injection. […]
(§5) The pixel size was 0.085×0.085×0.12 cm, and the resolution in the center field of view was 1.8 mm. […] Mean standardized uptake values (SUVmean = [activity/ml tissue]/[injected activity/body weight], mL/kg] were calculated for each ROI. Time–activity curves (TACs) were generated for the dynamic scans only. All semiquantified PET data are presented as mean ± SEM.

Details of series [3]: species or system BALB/c mice. The settings on record: mouse, in vivo. The procedure:
as §3

Another series concerns MDA-MB-231 tumors. It counts as in vivo, NIH-III nu/nu mice. The procedure:
as §4
as §1, with “Depending on the experimental setup, data acquisition continued for either 60 min or 20 min in three-dimensional list mode. The dynamic list mode data were sorted into sinograms with 53 time frames (10×2 s, 8×5 s, 6×10 s, 6×20 s, 8×60 s, 10×120 s and 5×300 s). The frames were reconstructed using ordered subset expectation maximization or maximum a posteriori reconstruction modes.” left out
as §5

For the next series, the system named is EMT-6 tumors. It counts as in vivo, BALB/c mice. The procedure: Murine EMT-6 cells (5 × 10^6 cells in 100 μl of PBS) were injected into the upper left flank of female BALB/c mice (20–24 g; Charles River, Saint-Constant, QC, Canada). The EMT-6 tumor-bearing mice were imaged and used for ex vivo biodistribution experiments after allowing 7–10 days for the tumors to reach sizes of about 600 mm^3.
as §1, §2

Where two headings read alike, the source gives them in different places. A value given as a limit tells only on which side of the number the result lay.

As to “Ac-GGGDPKGGGGG-NH2 [oligopeptide substrate with favorable kinetic properties for LOX-mediated peptidyl lysine oxidation (Nagan and Kagan)]”, in the series with LOX, the “Michaelis constant (Km) among several collagen N-telopeptide derivatives” value is reported as “lowest” and the “kcat/Km among several collagen N-telopeptide derivatives” value is recorded as “highest”.

On to “[^18F]FB-GGGDPKGGGGG-NH2 [[^18F]fluorobenzoate-GGGDPKGGGGG-NH2, 18F-labeled LOX-targeting oligopeptide PET radiotracer]”, for which the tumor-to-blood ratio in series [1] (5 min postinjection) was found to be 0.3; in series [1] (60 min postinjection), 2.3. Further, the tumor-to-muscle ratio in series [1] (5 min postinjection) is recorded as 2.7; in series [1] (60 min postinjection), 1. Also, the “time to maximum SUV in tumor” value in series [1] (mouse, in vivo) was 3 to 5 min. In addition, the HPLC retention time in series [2] is reported as 12.2 min. Also, the “SUV5min, tumor” value is given as 0.59±0.03 in the series on MCF-7 tumors (MCF-7 tumor, 4-5 MBq i.v., 5 min postinjection, mean ± SEM, n = 6); 0.50±0.09 with MDA-MB-231 tumors (MDA-MB-231 tumor, 4-5 MBq i.v., 5 min postinjection, mean ± SEM, n = 5); 0.63±0.08 with EMT-6 tumors (EMT-6 tumor, 4-5 MBq i.v., 5 min postinjection, mean ± SEM, n = 4). The “SUV60min, tumor” value with MCF-7 tumors (MCF-7 tumor, 60 min postinjection, mean ± SEM, n = 6) stood at 0.12±0.02; in the series on MDA-MB-231 tumors (MDA-MB-231 tumor, 60 min postinjection, mean ± SEM, n = 5), 0.12±0.02; in the series on EMT-6 tumors (EMT-6 tumor, 60 min postinjection, mean ± SEM, n = 4) it was 0.19±0.02. Moreover, the “SUV60min, muscle tissue” value with MCF-7 tumors (mouse, in vivo) turned out to be 0.05±0.008; with MDA-MB-231 tumors (mouse, in vivo) it was 0.04±0.004; in the series with EMT-6 tumors (mouse, in vivo), 0.03±0.004. In series [3], the “share of injected radiotracer found in the plasma compartment” value is reported as greater than 60%. Moreover, in the series with EMT-6 tumors (EMT-6 tumor, 60 min postinjection, control and BAPN-predosed groups), the “SUV60min, tumor, in the absence and presence of BAPN” value is recorded as 0.19–0.21. In the series on EMT-6 tumors (EMT-6 tumor, BAPN i.p. 24 h before radiotracer, mean ± SEM, n = 7, p > 0.05), the “SUV5min, tumor, in the presence of BAPN” value is on record as 0.52±0.05.

Take `N#CCCN` [BAPN, β-aminopropionitrile, reference compound]: the “reduction of maximum tumor uptake of the radiotracer (SUV5min)” value in the series with EMT-6 tumors (EMT-6 tumor, 100 mg/kg BAPN (about 2 mg per mouse) i.p. 4 h before [18F]FB-GGGDPKGGGGG-NH2) is “approximately 33%”. For the same compound, the “effect on radiotracer tumor uptake at 60 min postinjection” value in the series on EMT-6 tumors (EMT-6 tumor, BAPN predosing 4 h or 24 h) is reported as “no effect”. Also, the “effect on radioactivity in muscle tissue” value with EMT-6 tumors (muscle of EMT-6 tumor-bearing mice, BAPN predosing) is “unaltered”.

Source of the values: paper PMC4533939, “Targeting lysyl oxidase for molecular imaging in breast cancer” (Breast Cancer Research : BCR, 2015).
